Consider 7 compounds from patent US11091444B2, “Hydantoins that modulate BACE-mediated app processing” (BUCK INSTITUTE FOR RESEARCH ON AGING, priority 2013, dated 2021).

SMILES strings stand for the structures. Read-outs that look alike come from different tables or passages of the source.

A word on the IC50: it is the point on the concentration scale where inhibition reaches its midpoint.

The subject of one assay is sAPP alpha. In words: Secondary screen: sAPP alpha. It counts as cell-based. As to conditions: for sAPP alpha: increase (↑); for sAPP (α/β): increase (↑) of ratio.
The next assay concerns sAPP beta. In words: Secondary screen: sAPP beta. The note with it: decrease (↓). The format is cell-based.
The target of the next assay is TRX-eAPP575-624 (Homo sapiens (Human), UniProt P05067). Nature of the assay: SPR (Biacore) binding to APP ectodomain fragment. The method, then: The binding affinity of the compounds for the ectodomain of APP was determined using SPR. […] The eAPP was crosslinked linked to the CM5 Biacore chips (GE Healthcare).
FC1 served as a reference cell following a mock immobilization with buffer alone. For all cells, the flow rate was 10 al per min. The chip was blocked with 1M ethanolamine (pH 8.5). […] Binding traces were recorded for each dilution with a binding phase of 60 seconds and a dissociation phase of 240 seconds. Each cycle was performed at 20° C. with a constant flow rate of 20 l/min. An additional 240 seconds of buffer flow at 60 al per min across the cells was applied as a regeneration phase to facilitate complete dissociation of the compound from the protein. The sensograms were obtained by subtraction of the reference and buffer signals using the Biacore T100 Evaluation software. The binding curves were modeled with the PRISM (Graphpad Inc).

In a further assay the test system is Aβ1-42. In words: Aβ1-42 ELISA in SH-SY5Y neuroblastoma cells. The format is cell-based, human. The note with it: for IC50: Homo sapiens, SH-SY5Y, secondary screen. The method, then: SH-SY5Y neuroblastoma cells were seeded at 50,000 cells/well in a 96 wells plate for 24 h. Then their medium was changed for fresh medium supplemented with desired concentration of the hydantoin compound (e.g. compound 3). After 24 h, 20 al of the medium was added to 2 al of the complete protease inhibitor with 1 μM EDTA and kept at 4° C. until analysis using the ELISA assay below.
ELISA kits from Invitrogen were also used to quantify Aβ1-42 (KHB3544) in duplicate. For the Aβ 1-42 ultrasensitive ELISA, samples were diluted 1:2 (50 al CSF plus 50 μl kit-provided standard diluent buffer). Assays were performed according to manufacturer's instructions. In short, standards and samples were added to a plate pre-coated with a monoclonal capture antibody specific for the amino terminus of Hu Aβ. The samples were co-incubated with a rabbit detection antibody (Ab) specific for the carboxy terminus of the Aβ species being assayed for 3 hr at room temperature overnight at 4° (Aβ 1-42) with gentle rocking. After washing, bound rabbit Ab was detected using a horseradish peroxidase-labeled anti-rabbit secondary Ab. After washing again, bound HRP-anti rabbit Ab was detected colorimetrically (Spectramax 190, Molecular Devices) by the addition of a substrate solution. 1 mM 4-(2-Aminoethyl) benzenesulfonyl fluoride hydrochloride (AEBSF) protease inhibitor (101500, Calbiochem) was added to standards and samples.
On the technique in general: An ELISA detects its analyte on a solid surface through an enzyme-linked reagent.

The subject of another assay is Aβ42. In words: Aβ lowering in NTg mice. As to conditions: 1 mpk. The format is in vivo. The method, then:
Compound 2 and other hydantoins were produced (see, e.g., compounds 1-5 pharmacokinetic evaluation of these hydantoins was determined in brain uptake assays using NTg mice (see, e.g., Table 1). It was also determined that Compound 1 lowered Aβ42 in the same animals at 5 mpk, while compound 3 lowered Aβ at 1 mpk.

Another assay deals with NRG1-BACE1 (Homo sapiens (Human), UniProt P56817). Nature of the assay: NRG1-BACE cleavage in transfected HEK 293 cells (SEAP/lacZ). The format is cell-based. The method, then:
(§1) Briefly, in order to determine the PSGL-1-BACE1 IC50 IC50 HEK 293 cells were plated in 24 well plates and transiently cotransfected with either PSGL1/lacZ or NRG1/lacZ constructs using Lipofectamine 2000; manufacturer protocol was followed. Two hours after adding the DNA-lipid complex to the cells a BACE inhibitor was added to each well, then cells were incubated overnight at 37° C. and 5% CO2. Cultured medium was collected to determine NRG1 or PSGL1, and cells were lysed to measure lacZ levels. Sigma SEAP kit standard protocol was conducted on the cultured medium to detect levels of PSGL1 or NRG1. Promega kit instructions were followed to determine lacZ concentration. The ratio of PSGL1/lacz vs [BACE inhibitor] or were plotted to determine the BACE1-IC50 on each of the substrate using GraphPad Prism 5 (FIG. 6B).

The target in another assay is PSGL-1-BACE1 (Homo sapiens (Human), UniProt P56817). In words: PSGL1-BACE cleavage in transfected HEK 293 cells (SEAP/lacZ). It counts as cell-based. As to conditions: APP-BACE vs PSGL1-BACE cleavage. On the procedure:
as §1

NRG1-BACE1, sequence (P56817 46-501): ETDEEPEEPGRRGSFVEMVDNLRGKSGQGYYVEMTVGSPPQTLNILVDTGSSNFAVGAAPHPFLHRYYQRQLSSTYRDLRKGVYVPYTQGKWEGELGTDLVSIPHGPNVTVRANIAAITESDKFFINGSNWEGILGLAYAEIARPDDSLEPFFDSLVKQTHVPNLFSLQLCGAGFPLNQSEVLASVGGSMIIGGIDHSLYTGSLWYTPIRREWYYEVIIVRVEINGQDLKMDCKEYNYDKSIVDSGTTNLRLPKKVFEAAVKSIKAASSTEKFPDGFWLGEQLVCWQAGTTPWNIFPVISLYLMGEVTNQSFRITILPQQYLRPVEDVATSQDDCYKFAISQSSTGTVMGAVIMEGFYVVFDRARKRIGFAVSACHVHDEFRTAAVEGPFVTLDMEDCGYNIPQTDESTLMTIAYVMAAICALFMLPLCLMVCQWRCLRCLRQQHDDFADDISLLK
TRX-eAPP575-624, sequence (P05067 650-699): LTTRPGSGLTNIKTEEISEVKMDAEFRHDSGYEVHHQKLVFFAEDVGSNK
PSGL-1-BACE1, sequence (P56817 46-501): as the sequence (P56817 46-501) above

Turning to `Cc1cccc(C2(c3ccc(OC(F)F)c(C)c3)N=C(N)N(C)C2=O)c1` (stereo not drawn) [FAH-27, 2-amino-4-(4-(difluoromethoxy)-3-methylphenyl)-1-methyl-4-(m-tolyl)-1H-imidazol-5(4H)-one], in the assay with sAPP alpha, the sAPP alpha result was “↑ > 30%” and the “sAPP (α/β)” value is given as “↑ > 100%”. Besides, the sAPP beta result in the assay on sAPP beta is on record as “↓ < 30%”.

As for `Cc1cc(C2(c3cc(F)cc(F)c3)N=C(N)N(C)C2=O)ccc1OC(F)F` (stereo not drawn) [FAH-3, 2-amino-4-(4-(difluoromethoxy)-3-methylphenyl)-4-(3,5-difluorophenyl)-1-methyl-1H-imidazol-5(4H)-one], the Kd at TRX-eAPP575-624 (Table 1, SPR, read-out: APP binding Kd) was found to be 0.3 µM. In the assay on sAPP alpha, the sAPP alpha result is on record as “↑ > 10%” and the “sAPP (α/β)” value was “↑≈10%”. Also, the sAPP beta entry in the assay on sAPP beta is reported as “↓ < 20%”. Besides, the IC50 in the assay on Aβ1-42 is > 1 µM. The “Inhibition of Aβ / Aβ42 production” value in the assay with Aβ1-42 (SH-SY5Y cells) is on record as “inhibition of Aβ production”. For the same compound, the “Aβ lowering in vivo” value in the assay with Aβ42 was “lowered Aβ”.

`Cc1cc(C2(c3cccc(F)c3)N=C(N)N(C)C2=O)ccc1OC(F)F` (stereo not drawn) [FAH-17, 2-amino-4-(4-(difluoromethoxy)-3-methylphenyl)-4-(3-fluorophenyl)-1-methyl-1H-imidazol-5(4H)-one]: in the assay with sAPP alpha, the sAPP alpha entry is “↑ > 20%” and the “sAPP (α/β)” value is “↑ > 100%”. For the same compound, the sAPP beta result with sAPP beta is “↓ < 50%”. Moreover, in the assay with Aβ1-42, the concentration for half-maximal inhibition (IC50) is > 1 µM. At NRG1-BACE1 (APP-BACE vs NRG1-BACE cleavage), the “Selectivity for APP over NRG1” value is > 10 fold. The IC50 at NRG1-BACE1 (secondary screen, read-out: NRG1-BACD1 IC50) is > 1 µM. Besides, at PSGL-1-BACE1, the “Selectivity for APP over PSGL1” value is > 200 fold.

For the compound `CN1C(=O)C(c2ccccc2)(c2cc(F)cc(F)c2)N=C1N` (stereo not drawn) [FAH-1], the Kd on TRX-eAPP575-624 amounted to 5 µM.

`Cc1cc(C2(c3cccc(Cl)c3)N=C(N)N(C)C2=O)ccc1OC(F)F` (stereo not drawn) [FAH-23, 2-amino-4-(3-chlorophenyl)-4-(4-(difluoromethoxy)-3-methylphenyl)-1-methyl-1H-imidazol-5(4H)-one]: in the assay on sAPP alpha, the sAPP alpha result was “↑ > 20%” and the “sAPP (α/β)” value is recorded as “↑ > 50%”. In addition, in the assay with sAPP beta, the sAPP beta result was “↓ < 20%”.

As for `Cc1cc(F)cc(C2(c3ccc(OC(F)F)c(C)c3)N=C(N)N(C)C2=O)c1` (stereo not drawn) [FAH-22, 2-amino-4-(4-(difluoromethoxy)-3-methylphenyl)-4-(3-fluoro-5-methylphenyl)-1-methyl-1H-imidazol-5(4H)-one], in the assay on sAPP alpha, the sAPP alpha entry was “↑ > 10%” and the “sAPP (α/β)” value is reported as “↑≈50%”. In the assay on sAPP beta, the sAPP beta result was “↓ < 20%”.

For the compound `Cc1cc(C2(c3cccc(C(F)(F)F)c3)N=C(N)N(C)C2=O)ccc1OC(F)F` (stereo not drawn) [FAH-28], in the assay with sAPP alpha, the sAPP alpha entry is reported as “↑ > 20%” and the “sAPP (α/β)” value is reported as “↑ > 50%”. In the assay with sAPP beta, the sAPP beta result is recorded as “↓ < 20%”.
